Results: PubChem BioAssay AID504661 (Broad Institute, 2011)
Active and inactive are the calls of the source. The rule behind the calls is not given here.

Tested on: P. falciparum 3D7 ACP-GFP apicoplast imaging, 4 days
Assay: loss of apicoplast ACP-GFP localization – imaging, 3D7 ACP-GFP strain, mechanism study for antimalarial project, late-stage follow-up (AID 504661)
Details: hits give high values

COc1ccc(COC[C@H](C)N2C[C@@H](C)[C@H](CN(C)S(=O)(=O)c3ccc(F)cc3)OCCCC[C@H](C)Oc3ccc(NC(=O)Nc4ccccc4)cc3C2=O)cc1
apicoplast disruption (at 3.2 nM): 16.1% (inactive)

COCCOC(=O)N(C)C[C@@H]1OCCCC[C@H](C)Oc2ccc(NC(=O)Nc3ccccc3)cc2C(=O)N([C@@H](C)CO)C[C@H]1C
apicoplast disruption (at 50000 nM): 13.7% (inactive)

Cc1noc(C)c1NC(=O)Nc1ccc2c(c1)C(=O)N([C@@H](C)CO)C[C@@H](C)[C@H](CN(C)S(=O)(=O)c1ccc(F)cc1)OCCCC[C@H](C)O2
apicoplast disruption (at 2000 nM): 21% (inactive)

C[C@@H]1CN([C@@H](C)COC(=O)C(C)(C)C)C(=O)c2cc(NC(=O)Nc3ccccc3)ccc2O[C@@H](C)CCCCO[C@H]1CN(C)S(=O)(=O)c1ccc(F)cc1
apicoplast disruption (at 16 nM): 17.2% (inactive)
